Laboratory results as given in patent EP0624593A2, “Bile acid derivates, a method for their production and their use as medicines” (HOECHST AKTIENGESELLSCHAFT, priority 1993, dated 1994).

Target: T1, Na⁺-abhängiges Gallensäuretransportsystem (Bürstensaummembranvesikel des Ileums) (Oryctolagus cuniculus, UniProt Q28727)
T1 construct: Präparation von Bürstensaummembranvesikeln aus dem Ileum von Kaninchen; from tissue; host or cells: Brush border membrane vesicles from the terminal ileum of male New Zealand rabbits (Mg2+ precipitation method)
T1 sequence (Q28727 1-347): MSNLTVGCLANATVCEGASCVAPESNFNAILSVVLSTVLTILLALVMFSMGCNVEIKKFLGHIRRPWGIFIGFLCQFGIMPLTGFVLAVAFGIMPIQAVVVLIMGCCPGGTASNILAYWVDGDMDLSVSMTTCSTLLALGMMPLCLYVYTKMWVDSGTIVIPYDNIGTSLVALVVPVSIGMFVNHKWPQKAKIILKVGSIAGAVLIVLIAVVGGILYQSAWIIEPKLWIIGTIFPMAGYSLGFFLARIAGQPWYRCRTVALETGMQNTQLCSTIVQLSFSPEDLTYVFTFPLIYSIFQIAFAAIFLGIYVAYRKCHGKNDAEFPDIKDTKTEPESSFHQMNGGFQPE
Assay: Inhibition of [³H]-taurocholate uptake into brush border membrane vesicles of rabbit ileum (membrane filtration technique)
Assay type: biochemical, Kaninchen
Conditions: 50 µM Taurocholat; for IC50Na-TCDC[µmol] / IC50Na-Substanz[µmol]: quotient of IC50Na of reference Taurochenodesoxycholat (TCDC) and IC50Na of test substance, Na⁺-dependent transport part (difference Na-T-P minus K-T-P); for IC50-TCDC[µmol] / IC50-Substanz[µmol]: quotient of IC50 of reference Taurochenodesoxycholat (TCDC) and IC50 of test substance, [³H]-Taurocholat uptake, usually 1 min incubation
Source text: Die biologische Prüfung der erfindungsgemäßen Verbindungen erfolgte durch Ermittlung der Hemmung der [³H]-Taurocholataufnahme in Bürstensaummembranvesikel des Ileums von Kaninchen. Der Hemmtest wurde wie folgt durchgeführt:
1. Präparation von Bürstensaummembranvesikeln aus dem Ileum von Kaninchen
Die Präparation von Bürstensaummembranvisikeln aus den Darmzellen des Dünndarm erfolgte mit der sogenannten Mg²⁺-Präzipitationsmethode. Männliche Neuseeland-Kaninchen (2 bis 2,5 kg Körpergewicht) wurden durch intravenöse Injektion von 0,5 ml einer wäßrigen Lösung von 2,5 mg Tetracain HCl, 100 T 61^R und 25 mg Mebezoniumjodid getötet. Der Dünndarm wurde entnommen und mit eiskalter physiologischer Kochsalzlösung gespült. Die terminalen 7/10 des Dünndarms (gemessen in oral rectaler Richtung, d. h. das terminale Ileum, welches das aktive Na⁺-abhängige Gallensäuretransportsystem enthält) wurden zur Präparation der Bürstensaummembranvesikel verwendet. Die Därme wurden in Kunststoffbeuteln unter Stickstoff bei -80°C eingefroren. Zur Präparation der Membranvesikel wurden die eingefrorenen Därme bei 30°C im Wasserbad aufgetaut. Die Mucosa wurde abgeschabt und in 60 ml eiskaltem 12 mM Tris/HCl-Puffer (pH 7,1)/300 mM Mannit, 5 mM EGTA/10 mg/l Phenylmethylsulfonylfluorid/1 mg/l Trypsin Inhibitor v. Sojabohnen (32 U/mg)/0,5 mg/l Trypsin Inhibitor v. Rinderlunge (193 U/mg)15 mg/l Bacitracin suspendiert. Nach dem Verdünnen auf 300 ml mit eiskaltem destilliertem Wasser wurde mit einem Ultraturrax (18-Stab, IKA Werk Staufen, BRD) 3 Minuten bei 75 % max. Leistung unter Eiskühlung homogenisiert. Nach Zugabe von 3 ml 1 M MgCl₂-Lösung (Endkonzentration 10 mM) ließ man exakt 1 Minute bei 0°C stehen. Durch Zugabe von Mg²⁺ aggregieren die Zellmembranen und präzipitieren mit Ausnahme der Bürstensaummembranen. Nach einer 15-minütigen Zentrifugation bei 3000 x g (5000 rpm, SS-34-Rotor) wurde der Niederschlag verworfen und der Überstand, der die Bürstensaummembranen enthält, 30 Minuten bei […] (15000 rpm, SS-34-Rotor) zentrifugiert. Der Überstand wurde verworfen, der Niederschlag in 60 ml 12 mM Tris/HCl-Puffer (pH 7,1)/60 mM Mannit, 5 mM EGTA mit einem Potter Elvejhem Homogenisator (Braun, Melsungen, 900 rpm, 10 Hübe) rehomogenisiert. Nach Zugabe von 0,1 ml 1 M MgCl₂-Lösung und 15-minütiger Inkubationszeit bei 0°C wurde erneut 15 Minuten bei 3000 x g zentrifugiert. Der Überstand wurde anschließend nochmals 30 Minuten bei 46000 x g (15000 rpm, SS-34-Rotor) zentrifugiert. Der Niederschlag wurde in 30 ml 10 mM Tris/Hepes-Puffer (pH 7,4)/300 mM Mannit aufgenommen und durch 20 Hübe in einem Potter Elvejhem Homogenisator bei 1000 rpm homogen resuspendiert. Nach 30 minütiger Zentrifugation bei 48000 x g (20000 rpm, SS-34-Rotor) wurde der Niederschlag in 0,5 bis 2 ml Tris/Hepes-Puffer (pH 7,4)/280 mM Mannit (Endkonzentration 20 mg/ml) aufgenommen und mit Hilfe einer Tuberkulinspritze mit einer 27 Gauge-Nadel resuspendiert. Die Vesikel wurden entweder unmittelbar nach der Präparation für Transportuntersuchungen verwendet oder bei -196°C in 4 mg Portionen in flüssigem Stickstoff aufbewahrt.
2. Hemmung der Na⁺-abhängigen [³H]Taurocholat-Aufnahme in Bürstensaummembranvesikel des Ileums
Die Aufnahme von Substraten in die vorstehend beschriebenen Bürstensaummembranvesikel wurde mittels der sogenannten Membranfiltrationstechnik bestimmt. 10 µl der Vesikelsuspension (100 µg Protein) wurden als Tropfen an die Wand eines Polystyrolinkubationsröhrchens (11 x 70 mm) pipettiert, welches das Inkubationsmedium mit den entsprechenden Liganden enthielt (90 µl). Das Inkubationsmedium enthielt 0,75 µl = 0,75 µCi [³H(G)]-Taurocholat (spezifische Aktivität: 2,1 Ci/mMol) /0,5 µl 10 mM Taurocholat/8,75 µl Natrium-Transport-Puffer (10 mM Tris/Hepes, (pH 7,4)/100 mM Mannit/100 mM NaCl) (Na-T-P) bzw. 8,75 µl Kalium-Transport-Puffer (10 mM Tris/Hepes (pH 7,4)/100 mM Mannit/100 mM KCl) (K-T-P) und 80 µl der betreffenden Inhibitorlösung, je nach Experiment in Na-T-Puffer bzw. K-T-Puffer gelöst. […]

SMILES | IC50Na-TCDC[µmol] / IC50Na-Substanz[µmol] | IC50-TCDC[µmol] / IC50-Substanz[µmol]
COC(=O)CC[C@@H](C)[C@H]1CC[C@H]2[C@@H]3[C@H](OCCNC(=O)CCC(=O)NCCCNC(=O)CC[C@@H](C)[C@H]4CC[C@H]5[C@@H]6[C@H](O)C[C@@H]7C[C@H](OC(c8ccccc8)c8ccccc8)CC[C@]7(C)[C@H]6C[C@H](O)[C@]45C)C[C@@H]4C[C@H](OC(C)=O)CC[C@]4(C)[C@H]3C[C@H](O)[C@]12C [Beispiel 20] | 0,12 | 
C[C@H](CCC(=O)N[C@H]1C[C@@H]2C[C@H](O)CC[C@]2(C)[C@H]2C[C@H](O)[C@]3(C)[C@@H]([C@H](C)CCC(=O)O)CC[C@H]3[C@H]12)[C@H]1CC[C@H]2[C@@H]3[C@H](O)C[C@@H]4C[C@H](O)CC[C@]4(C)[C@H]3C[C@H](O)[C@]12C [Beispiel 26] | 0,29 | 
C[C@H](CCC(=O)N[C@H]1C[C@@H]2C[C@H](O)CC[C@]2(C)[C@H]2C[C@H](O)[C@]3(C)[C@@H]([C@H](C)CCC(=O)O)CC[C@H]3[C@H]12)[C@H]1CC[C@H]2[C@@H]3[C@H](O)C[C@@H]4C[C@H](O)CC[C@]4(C)[C@H]3CC[C@]12C [Beispiel 27] | 0,44 | 0,64
C[C@H](CCC(=O)N[C@H]1C[C@@H]2C[C@H](O)CC[C@]2(C)[C@H]2C[C@H](O)[C@]3(C)[C@@H]([C@H](C)CCC(=O)O)CC[C@H]3[C@H]12)[C@H]1CC[C@H]2[C@@H]3[C@@H](O)C[C@@H]4C[C@H](O)CC[C@]4(C)[C@H]3CC[C@]12C [Beispiel 28] | 0,43 | 0,54
C[C@H](CCC(=O)N[C@H]1C[C@@H]2C[C@H](O)CC[C@]2(C)[C@H]2C[C@H](O)[C@]3(C)[C@@H]([C@H](C)CCC(=O)O)CC[C@H]3[C@H]12)[C@H]1CC[C@H]2[C@@H]3CC[C@@H]4C[C@H](O)CC[C@]4(C)[C@H]3CC[C@]12C [Beispiel 29] | 0,17 | 0,23
C[C@H](CCC(=O)NCCO[C@@H]1C[C@@H]2C[C@H](O)CC[C@]2(C)[C@H]2C[C@H](O)[C@]3(C)[C@@H]([C@H](C)CCC(=O)O)CC[C@H]3[C@H]12)[C@H]1CC[C@H]2[C@@H]3[C@H](O)C[C@@H]4C[C@H](O)CC[C@]4(C)[C@H]3C[C@H](O)[C@]12C [Beispiel 30] | 0,85 | 0,93
C[C@H](CCC(=O)NCCCNC(=O)CCC(=O)NCCO[C@@H]1C[C@@H]2C[C@H](O)CC[C@]2(C)[C@H]2C[C@H](O)[C@]3(C)[C@@H]([C@H](C)CCC(=O)O)CC[C@H]3[C@H]12)[C@H]1CC[C@H]2[C@@H]3[C@H](O)C[C@@H]4C[C@H](O)CC[C@]4(C)[C@H]3C[C@H](O)[C@]12C [Beispiel 32] | 0,80 | 1,00
C[C@H](CCC(=O)N[C@H]1C[C@@H]2C[C@H](O)CC[C@]2(C)[C@H]2C[C@H](O)[C@]3(C)[C@@H]([C@H](C)CCC(=O)NCCS(=O)(=O)O)CC[C@H]3[C@H]12)[C@H]1CC[C@H]2[C@@H]3[C@H](O)C[C@@H]4C[C@H](O)CC[C@]4(C)[C@H]3C[C@H](O)[C@]12C [Beispiel 39] | 1,05 | 0,92
C[C@H](CCC(=O)N[C@H]1C[C@@H]2C[C@H](O)CC[C@]2(C)[C@H]2C[C@H](O)[C@]3(C)[C@@H]([C@H](C)CCC(=O)NCCS(=O)(=O)O)CC[C@H]3[C@H]12)[C@H]1CC[C@H]2[C@@H]3[C@H](O)C[C@@H]4C[C@H](O)CC[C@]4(C)[C@H]3CC[C@]12C [Beispiel 40] | 0,52 | 0,54
C[C@H](CCC(=O)NCCO[C@@H]1C[C@@H]2C[C@H](O)CC[C@]2(C)[C@H]2C[C@H](O)[C@]3(C)[C@@H]([C@H](C)CCC(=O)NCCS(=O)(=O)O)CC[C@H]3[C@H]12)[C@H]1CC[C@H]2[C@@H]3[C@H](O)C[C@@H]4C[C@H](O)CC[C@]4(C)[C@H]3C[C@H](O)[C@]12C [Beispiel 43] | 0,96 | 1,18
